Reference: ChEMBL document CHEMBL1139572 (Bioorg Med Chem Lett, 2005)

Tests used:
Progesterone receptor [1] = target: T1, Progesterone receptor (Homo sapiens, UniProt P06401); assay: Inhibition of 4 nM progesterone-stimulated transactivation of MMTV-Luc reporter in CV-1 cells expressing PR-B; assay type: functional, cell-based
T1 sequence (P06401 whole entry): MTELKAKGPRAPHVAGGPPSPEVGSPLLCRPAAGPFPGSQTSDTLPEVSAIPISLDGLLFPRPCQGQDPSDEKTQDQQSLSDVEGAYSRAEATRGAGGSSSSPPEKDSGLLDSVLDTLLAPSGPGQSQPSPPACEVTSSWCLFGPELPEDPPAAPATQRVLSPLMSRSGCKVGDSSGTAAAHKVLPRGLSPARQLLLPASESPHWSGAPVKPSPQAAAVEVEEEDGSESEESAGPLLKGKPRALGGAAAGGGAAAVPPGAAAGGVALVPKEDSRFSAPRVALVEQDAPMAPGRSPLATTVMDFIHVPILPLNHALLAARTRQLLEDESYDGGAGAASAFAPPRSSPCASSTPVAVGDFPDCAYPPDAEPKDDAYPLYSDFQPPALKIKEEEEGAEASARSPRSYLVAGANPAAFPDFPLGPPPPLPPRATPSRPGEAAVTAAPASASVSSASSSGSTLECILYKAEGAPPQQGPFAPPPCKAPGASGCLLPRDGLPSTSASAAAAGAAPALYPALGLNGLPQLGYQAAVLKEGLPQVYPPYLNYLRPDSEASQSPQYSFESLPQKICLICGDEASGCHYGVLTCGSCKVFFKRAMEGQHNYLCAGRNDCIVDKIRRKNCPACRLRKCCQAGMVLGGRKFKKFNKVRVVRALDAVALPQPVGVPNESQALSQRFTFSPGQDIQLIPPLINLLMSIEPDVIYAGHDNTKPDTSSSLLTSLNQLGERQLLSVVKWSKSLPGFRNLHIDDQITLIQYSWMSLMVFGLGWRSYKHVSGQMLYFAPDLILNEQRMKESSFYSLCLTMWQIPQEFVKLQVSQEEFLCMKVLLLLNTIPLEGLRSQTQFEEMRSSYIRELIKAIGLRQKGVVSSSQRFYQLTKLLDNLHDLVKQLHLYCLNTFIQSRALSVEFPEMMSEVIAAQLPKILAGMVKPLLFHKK

Progesterone receptor [2] = target: T1, Progesterone receptor; assay: Displacement of fluorescent ligand from binding domain of progesterone receptor

Compound	Log IC50 (Progesterone receptor [1])	Ki (Progesterone receptor [2]) [nM]
CC1CC(c2ccc(Cl)c(Cl)c2)=NN1S(=O)(=O)c1ccc(Cl)cc1 (stereo unspecified)	-6.7	39.8
CN(C)c1ccc([C@@H]2CN(S(=O)(=O)c3ccc(Cl)cc3)N=C2c2ccc(Cl)c(Cl)c2)cc1	-5.8	100
O=S(=O)(c1ccc(Cl)cc1)N1N=C(c2ccc(Cl)c(Cl)c2)CC1c1ccccc1 (stereo unspecified)	-6.4	7940
CN(C)c1ccc(C2CN(S(=O)(=O)c3ccc(Cl)cc3)N=C2c2ccc(Cl)c(Cl)c2)cc1 (stereo unspecified)	-6.1	39.8
C[C@@H]1CN(S(=O)(=O)c2ccc(Cl)cc2)N=C1c1ccc(Cl)c(Cl)c1	-5.3	2000
C[C@H]1CN(S(=O)(=O)c2ccc(Cl)cc2)N=C1c1ccc(Cl)c(Cl)c1	-7.6	20
O=S(=O)(c1ccc(Cl)cc1)N1CC(c2ccccc2)C(c2ccc(Cl)c(Cl)c2)=N1 (stereo unspecified)		100
CC1CN(S(=O)(=O)c2ccc(Cl)cc2)N=C1c1ccc(Cl)c(Cl)c1 (stereo unspecified)		39.8
CN(C)c1ccc([C@H]2CN(S(=O)(=O)c3ccc(Cl)cc3)N=C2c2ccc(Cl)c(Cl)c2)cc1	> -5.5	> 10000
